Experiment [1] has as its system primary normal human melanocytes (R6-NHEM-2). Kind of experiment: Melanogenesis assay (melanin content after 240 hours incubation, OD at 405 nm against melanin standard). The following applies: for Melanin: 240 hours incubation. Type of experiment: cell-based. As to the method:
The action of the compounds of the formula I as tanning agents is tested through the ability to increase melanin synthesis. The reference used is kojic acid, which acts on melanin synthesis and prevents a possible brown coloration of the skin. It can be seen from Table 1 that the compounds Ia to 1 g according to the invention are distinguished by the fact that—after topical application—they induce the formation of skin-inherent pigments in the skin, increase melanin synthesis in the skin and in this way produce enhanced tanning of the skin. They have no adverse health effects, are non-irritant and easy to handle, and the resultant hue naturally corresponds to that of the natural healthy skin colour. The tanning obtained is light-fast and cannot be washed off since it corresponds to natural tanning. To this end, primary normal human melanocytes (R6-NHEM-2)* are cultivated in 24 microtitre plates (96-well, 120,000 cells per tube). Two additional plates are carried out, one for evaluation of the viability of the cells (standard MTT assay) and a second for protein investigation (using a […] standard protocol). After 50% confluence, the culture medium is replaced by fresh culture medium which comprises either the control solution (KA or IBMX) or the 7 solutions to be investigated. Each experiment is repeated 3 times. The cells are incubated at 37° C. (and 5% CO2) for 240 hours, during which the medium is changed every 3 days. After incubation, monolayers are rinsed, the cells are destroyed, and melanin is extracted by means of a 0.5 M NaOH solution. *NHEM-2=normal human epidermal melanocytes (cell type) The optical density (OD) of each experimentally determined value is measured at 405 nm against the melanin standard (standard curve 0.39 to 100 μg/ml of melanin, Sigma M8631). The measurement results are quoted in μg/ml of melanin and in percent of the negative untreated control.

Experiment [2] is described as follows: Tanning activity of intermediates or precursors (statement, no method given).
Setting [3] is: Homo sapiens, Melanocyte, 240 h, 200 μM, percent of the negative untreated control.
[4] abbreviates: Homo sapiens, Melanocyte, 240 h, 8 μM, percent of the negative untreated control.
Setting [5] is: Homo sapiens, Melanocyte, 240 h, 40 μM, percent of the negative untreated control.
[6] abbreviates: Homo sapiens, Melanocyte, 240 h, 1.6 μM, percent of the negative untreated control.

Experimental findings from patent US20090220438A1, “CHROMEN-4-ONE DERIVATIVES AS SELF-TANNING SUBSTANCE” (MERCK PATENT GMBH, priority 2006, published 2009) are described below.

In the case of `CC(C)Cn1c(=O)n(C)c(=O)c2[nH]cnc21` [IBMX, 3-isobutyl-1-methylxanthine, reference compound], the Melanin in experiment [1] (200 μM) is 15.39 µg/mL. Also, the activity at 200 µM in experiment [1] (setting [3]) stood at 166%.
For `COCC(=O)c1c(COC)oc2cc(O)cc(O)c2c1=O` [IIa, 5,7-dihydroxy-3-(2-methoxyacetyl)-2-methoxymethyl-1-benzopyran-4-one], in experiment [2], the “Tanning activity (in words)” value is listed as “have a tanning activity”.
Take `COCc1cc(=O)c2c(O)cc(O)cc2o1` [Ia, 5,7-dihydroxy-2-methoxymethylchromen-4-one]: the Melanin in experiment [1] (50 μM) worked out at 17.87 µg/mL; in experiment [1] (150 μM), 22.14 µg/mL; in experiment [1] (450 μM), 19.98 µg/mL. The activity at 50 µM in experiment [1] (Homo sapiens, Melanocyte, 240 h, 50 μM, percent of the negative untreated control) came out at 192%. Moreover, the activity at 150 µM in experiment [1] (Homo sapiens, Melanocyte, 240 h, 150 μM, percent of the negative untreated control) is 239%. For the same molecule, the activity at 450 µM in experiment [1] (Homo sapiens, Melanocyte, 240 h, 450 μM, percent of the negative untreated control) came to 215%.
Consider `COCc1oc2cc(O)cc(O)c2c(=O)c1OC` [Ib, 5,7-dihydroxy-3-methoxy-2-methoxymethylchromen-4-one], for which the Melanin in experiment [1] (8 μM) came out at 20.9 µg/mL; in experiment [1] (40 μM), 23.7 µg/mL; in experiment [1] (200 μM), 25.2 µg/mL. Also, the activity at 8 µM in experiment [1] (setting [4]) worked out at 106%. Also, the activity at 40 µM in experiment [1] (setting [5]) was 120%. Further, in experiment [1] (setting [3]), the activity at 200 µM turned out to be 128%.
For `O=c1c(O)c(CO)oc2cc(O)cc(O)c12` [Ic], the Melanin was 20.8 µg/mL in experiment [1] (8 μM), 23.8 µg/mL in experiment [1] (40 μM) and 27.6 µg/mL in experiment [1] (200 μM). In addition, the activity at 8 µM in experiment [1] (setting [4]) came to 105%. Moreover, the activity at 40 µM in experiment [1] (setting [5]) came to 120%. Moreover, in experiment [1] (setting [3]), the activity at 200 µM is 139%.
Regarding `COc1c(C)oc2cc(O)cc(O)c2c1=O` [Id, 5,7-dihydroxy-3-methoxy-2-methylchromen-4-one], the results for the Melanin in experiment [1] (1.6 μM), in experiment [1] (8 μM) and in experiment [1] (40 μM) were 20.8 µg/mL, 22.0 µg/mL and 27.0 µg/mL, respectively. In addition, the activity at 1.6 µM in experiment [1] (setting [6]) stood at 106%. The activity at 8 µM in experiment [1] (setting [4]) came to 112%. The activity at 40 µM in experiment [1] (setting [5]) worked out at 137%.
Regarding `Cc1oc2cc(O)cc(O)c2c(=O)c1O` [Ie, 2-methyl-3,5,7-trihydroxychromen-4-one], the Melanin turned out to be 20.6 µg/mL in experiment [1] (8 μM), 23.9 µg/mL in experiment [1] (40 μM) and 27.2 µg/mL in experiment [1] (200 μM). Further, the activity at 8 µM in experiment [1] (setting [4]) worked out at 104%. Moreover, the activity at 40 µM in experiment [1] (setting [5]) worked out at 121%. Besides, in experiment [1] (setting [3]), the activity at 200 µM came to 138%.
Turning to `O=c1ccoc2cc(O)ccc12` [If, 7-hydroxychromen-4-one], the Melanin in experiment [1] (1.6 μM) was 19.9 µg/mL; in experiment [1] (8 μM), 20.3 µg/mL; in experiment [1] (40 μM), 24.7 µg/mL. The activity at 1.6 µM in experiment [1] (setting [6]) came out at 100%. Besides, in experiment [1] (setting [4]), the activity at 8 µM was found to be 102%. Further, in experiment [1] (setting [5]), the activity at 40 µM was determined as 124%.
Take `O=c1ccoc2c(O)c(O)ccc12` [Ig, 7,8-dihydroxychromen-4-one]: the Melanin in experiment [1] (0.32 μM) was determined as 20.7 µg/mL; in experiment [1] (1.6 μM), 19.9 µg/mL; in experiment [1] (8 μM), 19.8 µg/mL. In experiment [1] (Homo sapiens, Melanocyte, 240 h, 0.32 μM, percent of the negative untreated control), the activity at 0.32 µM is 104%. In addition, in experiment [1] (setting [6]), the activity at 1.6 µM turned out to be 100%. Further, the activity at 8 µM in experiment [1] (setting [4]) came out at 100%.
On to `O=c1cc(CO)occ1O` [Kojic acid, kojic acid, reference compound], for which the Melanin in experiment [1] (560 μM) is 5.55 µg/mL. The activity at 560 µM in experiment [1] (Homo sapiens, Melanocyte, 240 h, 560 μM, percent of the negative untreated control) came out at 55%.
